Holding throughout (format): cell-based
For test [1], the system named is MCF-7 (human breast adenocarcinoma cell line). As to the kind of experiment: MTT cytotoxicity assay, MCF-7 cells. The conditions noted are these: for IC50: Homo sapiens, read-out: IC50 MCF-7; for SI (MCF-7): selectivity index: ratio of IC50 NHDF-Neo to IC50 MCF-7. As to the method:
(§1) Cytotoxicity screening of the obtained glycoconjugates, their potential metabolites, and substrates used for their synthesis was conducted using the MTT assay.
(§2) All cells were kept in a humidified incubator at 37 °C in a 5% CO2 atmosphere.
(§3) Cell viability was assessed by the MTT (3-[4,5–dimethylthiazol-2-yl]-2,5-diphenyltetrazolium bromide) test (ACROS Organics). Stock solutions of tested compounds were prepared in DMSO and stored accordingly.
(§4) Cells treated with glycoconjugates or potential metabolites were incubated for another 24–72 h (depending on the cell line). Subsequently, 50 µL MTT solution (0.5 mg/mL) in RPMI medium without Phenol Red was added to each well. After 3 h of incubation, the MTT solution was removed, and the precipitated formazan was dissolved in 100 µL of DMSO. Finally, the absorbance of the solubilized formazan crystals was measured at the 570 nm wavelength. Each experiment was carried out in three independent iterations with four technical repetitions. […] Cell viability was expressed as:Cell viability (%) = (ODsample − ODblank)/(ODcontrol − ODblank) × 100%.

Test [2] has as its system HCT 116 (human colorectal cancer cell line). As to the kind of experiment: MTT cytotoxicity assay, HCT 116 cells. To be noted: for IC50: Homo sapiens, HCT-116, 24 h, read-out: IC50 HCT 116; for SI (HCT 116): selectivity index: ratio of IC50 NHDF-Neo to IC50 HCT 116. As for the experimental part:
as §1, §2, §3, §4

The test system of test [3] is NHDF-Neo (normal human dermal fibroblast-neonatal cells). As to the kind of experiment: MTT cytotoxicity assay, NHDF-Neo healthy cells. To be noted: read-out: IC50 NHDF-Neo. As to the method:
as §1, §2, §3, §4
On the technique in general: Tetrazolium dyes change colour on reduction, which living cells bring about.

The mark [4] stands for this setting: MCF7, MTT assay, incubation time 72 h.
The mark [5] stands for this setting: MTT assay, incubation time 24 h.

Where two headings read alike, the source gives them in different places. Where only a bound is given, the exact number is not on record here.

In general, IC50 refers to the concentration at which inhibition is half-maximal. Turning to `Nc1cccc2cccnc12` [Compound 1, 8-Aminoquinoline, reference compound], the IC50 in test [1] (MCF7, 72 h) is above 400 µM; in test [2] it was above 800 µM; in test [3] (24 h), above 800 µM.

As for `Oc1cccc2cccnc12` [Compound 2, 8-hydroxyquinoline, reference compound], the IC50 in test [1] (MCF7, 72 h) was determined as 3.01 ± 0.05 µM; in test [2] it was 9.33 ± 0.22 µM; in test [3] (24 h) it was 9.34 ± 0.25 µM. The “SI (MCF-7)” value in test [1] came out at 3.1. The “SI (HCT 116)” value in test [2] is 1.

Take `C#CCNc1cccc2cccnc12` [Compound 3, N-(prop-2-yn-1-yl)quinolin-8-amine]: the figures for the 50% inhibitory concentration (IC50) in test [1] (setting [4]), in test [2] (setting [5]) and in test [3] (setting [5]) were 295 ± 8.49 µM, 550 ± 16.4 µM and above 800 µM, respectively.

As for `[N-]=[N+]=NCCCNc1cccc2cccnc12` [Compound 5, N-(3-azidopropyl)quinolin-8-amine], the half-inhibitory concentration (IC50) in test [1] (setting [4]) worked out at 47.1 ± 8.49 µM; in test [2] (setting [5]), 115 ± 13.4 µM; in test [3] (setting [5]) it was 415 ± 10.6 µM.

With `[N-]=[N+]=NCCCOc1cccc2cccnc12` [Compound 6, 8-(3-azidopropoxy)quinoline], the IC50 in test [3] (24 h) amounted to 782 ± 8.7 µM.

As for `CC(=O)OC[C@H]1O[C@@H](N=[N+]=[N-])[C@H](OC(C)=O)[C@@H](OC(C)=O)[C@@H]1OC(C)=O` [Compound 7, 2,3,4,6-tetra-O-acetyl-β-D-glucopyranosyl azide], the IC50 in test [1] (setting [4]), in test [2] (setting [5]) and in test [3] (setting [5]) was above 800 µM each time.

In the case of `CC(=O)OC[C@H]1O[C@@H](N=[N+]=[N-])[C@H](OC(C)=O)[C@@H](OC(C)=O)[C@H]1OC(C)=O` [Compound 8, 2,3,4,6-tetra-O-acetyl-β-D-galactopyranosyl azide], the IC50 in test [1] (setting [4]), in test [2] (setting [5]) and in test [3] (setting [5]) was above 800 µM each time.

Turning to `CC(=O)OC[C@H]1O[C@@H](OCCN=[N+]=[N-])[C@H](OC(C)=O)[C@@H](OC(C)=O)[C@@H]1OC(C)=O` [Compound 9, 2-azidoethyl 2,3,4,6-tetra-O-acetyl-β-D-glucopyranoside], the IC50 in test [1] (setting [4]), in test [2] (setting [5]) and in test [3] (setting [5]) was above 800 µM throughout.

Consider `CC(=O)OC[C@H]1O[C@@H](OCCN=[N+]=[N-])[C@H](OC(C)=O)[C@@H](OC(C)=O)[C@H]1OC(C)=O` [Compound 10, 2-azidoethyl 2,3,4,6-tetra-O-acetyl-β-D-galactopyranoside], for which the IC50 in test [1] (setting [4]), in test [2] (setting [5]) and in test [3] (setting [5]) was above 800 µM throughout.

Take `C#CCO[C@@H]1O[C@H](COC(C)=O)[C@@H](OC(C)=O)[C@H](OC(C)=O)[C@H]1OC(C)=O` [Compound 11, propargyl 2,3,4,6-tetra-O-acetyl-β-D-glucopyranoside]: the IC50 in test [1] (setting [4]), in test [2] (setting [5]) and in test [3] (setting [5]) was above 800 µM in each case.

On to `C#CCO[C@@H]1O[C@H](COC(C)=O)[C@H](OC(C)=O)[C@H](OC(C)=O)[C@H]1OC(C)=O` [Compound 12, propargyl 2,3,4,6-tetra-O-acetyl-β-D-galactopyranoside], for which the IC50 in test [1] (setting [4]), in test [2] (setting [5]) and in test [3] (setting [5]) was above 800 µM in each case.

Regarding `CC(=O)OC[C@H]1O[C@@H](n2cc(COc3cccc4cccnc34)nn2)[C@H](OC(C)=O)[C@@H](OC(C)=O)[C@@H]1OC(C)=O` [Compound 13a, reference compound], the IC50 in test [1] (setting [4]) was determined as 57.7 ± 3.3 µM; in test [2] (setting [5]), 69 ± 2.5 µM; in test [3] (setting [5]) it was 57.4 ± 3.2 µM. The “SI (MCF-7)” value in test [1] is 1.0. Further, the “SI (HCT 116)” value in test [2] is on record as 0.8.

Consider `CC(=O)OC[C@H]1O[C@@H](n2cc(COc3cccc4cccnc34)nn2)[C@H](OC(C)=O)[C@@H](OC(C)=O)[C@H]1OC(C)=O` [Compound 14a, reference compound], for which the IC50 in test [1] (setting [4]) is 4.1 ± 0.03 µM; in test [2] (setting [5]) it was 22.7 ± 1.6 µM; in test [3] (setting [5]) it was 31.9 ± 1.6 µM. In addition, in test [1], the “SI (MCF-7)” value was determined as 7.8. In addition, in test [2], the “SI (HCT 116)” value was determined as 1.4.

Take `OCCn1cc(CNc2cccc3cccnc23)nn1` [Compound 19]: the IC50 in test [1] (setting [4]) was 116 ± 2.7 µM; in test [3] (setting [5]), above 800 µM. The “SI (MCF-7)” value in test [1] is on record as above 6.9. Also, in test [2], the “SI (HCT 116)” value is listed as above 1.2.
